According to PMC9146896, “Uracil as a Zn-Binding Bioisostere of the Allergic Benzenesulfonamide in the Design of Quinoline–Uracil Hybrids as Anticancer Carbonic Anhydrase Inhibitors” (Pharmaceuticals, 2022):

Assays:
hCA I = hCA I (Homo sapiens, UniProt P00915); assay: Carbonic anhydrase inhibition, colorimetric method (BioVision CA Inhibitor Screening Kit)
hCA IX = hCA IX (Homo sapiens, UniProt Q16790); assay: as above; conditions: for Selectivity index I/IX: hCA IX over hCA I; for Selectivity index II/IX: hCA IX over hCA II
hCA XII = hCA XII (Homo sapiens, UniProt O43570); assay: Carbonic anhydrase inhibition, colorimetric method (BioVision CA Inhibitor Screening Kit); conditions: for Selectivity index I/XII: hCA XII over hCA I; for Selectivity index II/XII: hCA XII over hCA II
hCA XII, sequence (O43570 25-354): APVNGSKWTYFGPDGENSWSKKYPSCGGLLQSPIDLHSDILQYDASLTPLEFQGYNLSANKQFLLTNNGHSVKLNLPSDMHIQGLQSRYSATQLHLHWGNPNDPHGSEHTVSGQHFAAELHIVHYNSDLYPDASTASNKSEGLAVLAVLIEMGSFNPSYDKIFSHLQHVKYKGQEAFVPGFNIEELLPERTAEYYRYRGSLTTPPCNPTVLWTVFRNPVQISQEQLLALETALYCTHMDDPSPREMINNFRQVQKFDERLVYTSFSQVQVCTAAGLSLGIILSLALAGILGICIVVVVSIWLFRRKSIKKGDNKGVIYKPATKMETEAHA

hCA II = hCA II (Homo sapiens, UniProt P00918); assay: as above
Bax [1] = assay: Assessment of apoptotic marker levels: Bax in MCF-7; assay type: cell-based
From the text: (§1) The two cytoplasmic proteins, B-cell lymphoma protein 2 (Bcl-2) and its associated X protein (Bax), are essential for apoptosis in normal cells. Bax is a promoter and Bcl-2 is an inhibitor of apoptosis. Thus, the effect of 10d and 10l on apoptotic markers Bax and Bcl-2 in a breast cancer cell line (MCF-7) and a lung cancer cell line (A549) has been estimated.

Bax [2] = assay: Assessment of apoptotic marker levels: Bax in A549; assay type: cell-based
From the text: as §1

Bcl-2 [3] = assay: Assessment of apoptotic marker levels: Bcl-2 in MCF-7; assay type: cell-based
From the text: as §1

[4] = test system: breast cancer cell line (MCF-7); assay: Antiproliferative activity, MTT assay under hypoxic conditions; conditions: Homo sapiens, MCF7, read-out: Cytotoxicity IC50 MCF7
[5] = test system: lung cancer cell line (A549); assay: as above; assay type: cell-based; conditions: Homo sapiens, read-out: Cytotoxicity IC50 A549
Bcl-2 [6] = assay: Assessment of apoptotic marker levels: Bcl-2 in A549; assay type: cell-based
From the text: as §1

hCA I, sequence (P00915 whole entry): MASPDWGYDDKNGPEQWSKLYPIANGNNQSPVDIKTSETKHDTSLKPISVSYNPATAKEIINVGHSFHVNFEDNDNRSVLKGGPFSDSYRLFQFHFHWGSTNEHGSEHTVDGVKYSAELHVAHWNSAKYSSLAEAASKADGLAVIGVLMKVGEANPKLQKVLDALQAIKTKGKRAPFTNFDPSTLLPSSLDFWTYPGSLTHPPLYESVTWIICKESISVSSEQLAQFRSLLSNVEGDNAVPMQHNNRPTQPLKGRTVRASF

| IC50 (hCA I) [µM] | Ki (hCA I) [µM] | IC50 (hCA IX) [µM] | Ki (hCA IX) [µM] | Selectivity index I/IX (hCA IX) | Selectivity index II/IX (hCA IX) | melting point [°C] | IC50 (hCA XII) [µM] | Ki (hCA XII) [µM] | Selectivity index I/XII (hCA XII) | Selectivity index II/XII (hCA XII) | IC50 (hCA II) [µM] | Ki (hCA II) [µM] | SMILES | further results |
| --- | --- | --- | --- | --- | --- | --- | --- | --- | --- | --- | --- | --- | --- | --- |
| 0.97 | 0.53 | 0.25 | 0.14 | 3.88 | 2.09 | 270 to 272 | 0.32 | 0.17 | 3.05 | 1.65 | 0.52 | 0.29 | Nc1[nH]c(=O)[nH]c(=O)c1/N=C/c1cc2ccccc2[nH]c1=O [Compound 10a, (E)-6-Amino-5-(((2-oxo-1,2-dihydroquinolin-3-yl)methylene)amino)pyrimidine-2,4(1H,3H)-dione] |  |
| 1.01 | 0.56 | 0.63 | 0.35 | 1.60 | 1.81 | 280 to 282 | 0.35 | 0.19 | 2.88 | 3.24 | 1.14 | 0.63 | Nc1c(/N=C/c2cc3ccccc3[nH]c2=O)c(=O)[nH]c(=O)n1Cc1ccccc1 [Compound 10b, (E)-6-Amino-1-benzyl-5-(((2-oxo-1,2-dihydroquinolin-3-yl)methylene)amino) pyrimidine-2,4(1H,3H)-dione] |  |
| 1.76 | 0.97 | 0.4 | 0.22 | 4.37 | 1.65 | 290 to 292 | 0.49 | 0.27 | 3.62 | 1.37 | 0.66 | 0.37 | CCn1c(N)c(/N=C/c2cc3ccccc3[nH]c2=O)c(=O)[nH]c1=O [Compound 10c, (E)-6-Amino-1-ethyl-5-(((2-oxo-1,2-dihydroquinolin-3-yl)methylene)amino)pyrimidine-2,4(1H,3H)-dione] |  |
| 0.23 | 0.13 | 0.22 | 0.12 | 1.09 | 1.21 | 298 to 300 | 0.19 | 0.11 | 1.24 | 1.37 | 0.26 | 0.14 | Cn1c(N)c(/N=C/c2cc3ccccc3[nH]c2=O)c(=O)[nH]c1=O [Compound 10d, (E)-6-Amino-1-methyl-5-(((2-oxo-1,2-dihydroquinolin-3-yl)methylene)amino) pyrimidine-2,4(1H,3H)-dione] | Bax (Bax [1]): 403.1 ± 4.69 pg/mL; Bax level relative to the control (Bax [1]): nearly six-fold; Bax (Bax [2]): 278.6 ± 9.14 pg/mL; Bax level relative to the control (Bax [2]): nearly six-fold; Bcl2 (Bcl-2 [3]): 2.587 ± 0.03 nm/mL; Bcl-2 level in comparison with the control (Bcl-2 [3]): downregulated; IC50 [4]: 2.87 ± 0.05 µM; IC50 [5]: 11.8 ± 0.22 µM; Bcl2 (Bcl-2 [6]): 2.841 ± 0.01 nm/mL; Bcl-2 level in comparison with the control (Bcl-2 [6]): downregulated |
| 1.25 | 0.69 | 1.37 | 0.76 | 0.91 | 0.88 | 284 to 286 | 0.59 | 0.33 | 2.12 | 2.06 | 1.21 | 0.67 | Cn1c(N)c(/N=C/c2cc3ccccc3[nH]c2=O)c(=O)[nH]c1=S [Compound 10e, (E)-3-(((6-Amino-1-methyl-4-Oxo-2-thioxo-1,2,3,4-tetrahydropyrimidin-5-yl)imino)methyl) quinolin-2(1H)-one] |  |
| 0.33 | 0.18 | 0.27 | 0.14 | 1.23 | 2.99 | 278 to 280 | 0.17 | 0.09 | 1.95 | 4.72 | 0.79 | 0.44 | CCn1c(N)c(/N=C/c2cc3cccc(C)c3[nH]c2=O)c(=O)[nH]c1=O [Compound 10f, (E)-6-Amino-1-ethyl-5-(((8-methyl-2-oxo-1,2-dihydroquinolin-3-yl)methylene)amino)pyrimidine-2,4(1H,3H)-dione] |  |
| 2.16 | 1.2 | 1.08 | 0.6 | 1.99 | 3.10 | 265 to 267 | 0.33 | 0.18 | 6.47 | 10.05 | 3.36 | 1.86 | Cc1cccc2cc(/C=N/c3c(N)n(C)c(=S)[nH]c3=O)c(=O)[nH]c12 [Compound 10g, (E)-3-(((6-Amino-1-methyl-4-oxo-2-thioxo-1,2,3,4-tetrahydropyrimidin-5-yl)imino)methyl)-8-methylquinolin-2(1H)-one] |  |
| 3.23 | 1.78 | 0.6 | 0.33 | 5.39 | 7.52 | 275 to 277 | 0.4 | 0.22 | 8.00 | 11.16 | 4.5 | 2.49 | COc1ccc2[nH]c(=O)c(/C=N/c3c(N)[nH]c(=O)[nH]c3=O)cc2c1 [Compound 10h, (E)-6-Amino-5-(((6-methoxy-2-oxo-1,2-dihydroquinolin-3-yl)methylene)amino) pyrimidine-2,4(1H,3H)-dione] |  |
| 2.11 | 1.17 | 0.91 | 0.51 | 2.31 | 1.17 | 291 to 293 | 0.23 | 0.13 | 9.07 | 4.60 | 1.07 | 0.59 | COc1ccc2[nH]c(=O)c(/C=N/c3c(N)n(Cc4ccccc4)c(=O)[nH]c3=O)cc2c1 [Compound 10i, (E)-6-Amino-1-benzyl-5-(((6-methoxy-2-oxo-1,2-dihydroquinolin-3-yl)methylene)amino) pyrimidine-2,4(1H,3H)-dione] |  |
| 0.89 | 0.49 | 0.87 | 0.48 | 1.02 | 2.98 | 287 to 289 | 0.62 | 0.34 | 1.43 | 4.18 | 2.6 | 1.44 | CCn1c(N)c(/N=C/c2cc3cc(OC)ccc3[nH]c2=O)c(=O)[nH]c1=O [Compound 10j, (E)-6-Amino-1-ethyl-5-(((6-methoxy-2-oxo-1,2-dihydroquinolin-3-yl)methylene)amino)pyrimidine-2,4(1H,3H)-dione] |  |
| 2.12 | 1.17 | 1.28 | 0.71 | 1.66 | 5.14 | 293 to 295 | 0.54 | 0.3 | 3.96 | 12.26 | 6.57 | 3.63 | COc1ccc2[nH]c(=O)c(/C=N/c3c(N)n(C)c(=O)[nH]c3=O)cc2c1 [Compound 10k, (E)-6-Amino-5-(((6-methoxy-2-oxo-1,2-dihydroquinolin-3-yl)methylene)amino)-1-methyl pyrimidine-2,4(1H,3H)-dione] |  |
| 0.25 | 0.14 | 0.14 | 0.08 | 1.75 | 13.20 | 295 to 297 | 0.19 | 0.11 | 1.29 | 9.75 | 1.88 | 1.04 | COc1ccc2[nH]c(=O)c(/C=N/c3c(N)n(C)c(=S)[nH]c3=O)cc2c1 [Compound 10l, (E)-3-(((6-Amino-1-methyl-4-oxo-2-thioxo-1,2,3,4-tetrahydropyrimidin-5-yl)imino)methyl)-6-methoxyquinolin-2(1H)-one] | Bax (Bax [1]): 337.2 ± 7.55 pg/mL; Bax level relative to the control (Bax [1]): nearly six-fold; Bax (Bax [2]): 208.4 ± 4.07 pg/mL; Bax level relative to the control (Bax [2]): nearly six-fold; Bcl2 (Bcl-2 [3]): 3.296 ± 0.09 nm/mL; Bcl-2 level in comparison with the control (Bcl-2 [3]): downregulated; IC50 [4]: 4.08 ± 0.08 µM; IC50 [5]: 26.1 ± 0.56 µM; Bcl2 (Bcl-2 [6]): 4.605 ± 0.28 nm/mL; Bcl-2 level in comparison with the control (Bcl-2 [6]): downregulated |
|  |  |  |  |  |  |  |  |  |  |  |  |  | CN[C@@H]1C[C@H]2O[C@@](C)([C@@H]1OC)n1c3ccccc3c3c4c(c5c6ccccc6n2c5c31)C(=O)NC4 [Staurosporine, staurosporine, reference compound] | Bax (Bax [1]): 381.8 ± 11.4 pg/mL; Bax (Bax [2]): 310.5 ± 9.7 pg/mL; Bcl2 (Bcl-2 [3]): 2.829 ± 0.07 nm/mL; IC50 [4]: 6.92 ± 0.18 µM; Bcl2 (Bcl-2 [6]): 3.78 ± 0.14 nm/mL |
